The source of these data is PubChem BioAssay (NCI).

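The compound was tested at five concentrations on cells cultured in 96-well plates, with a 48-hour exposure period. At the GI50, growth is halved. Definition used: TGI = concentration required for complete inhibition of growth.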

Some test systems named below: RPMI-8226 leukemia; SN12C renal; NCI-H460 lung; COLO 205 colon; UACC-62 melanoma; SK-MEL-2 melanoma; HCT-116 colon; SR leukemia.
What all share (assay): NCI-60 cell line screen, 48 h

For the compound `Cc1nc2ccccc2c(/C=C/c2ccc(Cl)cc2)c1C(=O)/C=C/c1ccccc1`, the GI50 in the test with RPMI-8226 leukemia was 1.26 µM; in the test with SN12C renal, 1.67 µM; with NCI-H460 lung it was 1.39 µM; with COLO 205 colon it was 1.98 µM. In addition, the TGI is 6.5 µM with RPMI-8226 leukemia, 3.36 µM in the test on SN12C renal, 3.14 µM in the test on NCI-H460 lung and 4.62 µM with COLO 205 colon.

`CN1C/C(=C\C=C\c2ccccc2)C(=O)/C(=C/C=C/c2ccccc2)C1`: the TGI in the test on RPMI-8226 leukemia, with SN12C renal, with UACC-62 melanoma, in the test with SK-MEL-2 melanoma, in the test on HCT-116 colon and in the test on NCI-H460 lung was > 100 µM throughout. The TGI in the test on COLO 205 colon was > 100 µM.

For `CCCCNC(=O)/N=C/c1c(O)c2ccccc2oc1=O`, the TGI is > 100 µM with RPMI-8226 leukemia; > 100 µM in the test with SN12C renal; > 100 µM in the test on UACC-62 melanoma; > 100 µM in the test with SR leukemia; 66.1 µM in the test with SK-MEL-2 melanoma; > 100 µM in the test with HCT-116 colon. Moreover, the TGI in the test on NCI-H460 lung and with COLO 205 colon was > 100 µM throughout.

`O=C1NCCS(=O)(=O)N2CCC[C@@H]12`: the TGI with RPMI-8226 leukemia, with SN12C renal, in the test on UACC-62 melanoma, in the test on SR leukemia, with HCT-116 colon and with NCI-H460 lung was > 100 µM each time. Moreover, the TGI with COLO 205 colon is > 100 µM.

For the compound `O=C1c2ccccc2C(=O)c2[nH]c(Cc3ccc(F)cc3)nc21`, the TGI in the test with RPMI-8226 leukemia was determined as 95.8 µM; with SN12C renal it was 51.3 µM; in the test on UACC-62 melanoma it was 35.5 µM; with SR leukemia, 55.5 µM; with SK-MEL-2 melanoma, 29 µM; with HCT-116 colon, 42.3 µM. Further, the TGI in the test on NCI-H460 lung came to 31.1 µM; with COLO 205 colon it was 41 µM.

Consider `O=C1CSc2cc([N+](=O)[O-])ccc2N1`, for which the TGI in the test on SN12C renal, in the test on UACC-62 melanoma, in the test on SK-MEL-2 melanoma, in the test with HCT-116 colon, in the test with NCI-H460 lung and in the test on COLO 205 colon was > 100 µM throughout.

For `O=C(N/N=C/c1cc(Br)cc(Br)c1[O-])c1ccccc1O.O=C(N/N=C/c1cc(Br)cc(Br)c1[O-])c1ccccc1O.[Ni+2]`, the TGI in the test on UACC-62 melanoma worked out at 0.661 µM; with SR leukemia, 1.65 µM; in the test on SK-MEL-2 melanoma, 1.3 µM; with HCT-116 colon it was 1.55 µM; in the test with NCI-H460 lung it was 1.66 µM; in the test with COLO 205 colon, 3.22 µM.

With `NC(CSSCC(N)Cc1ccccc1)Cc1ccccc1` (stereo not given), the TGI in the test with RPMI-8226 leukemia is > 100 µM; in the test on SN12C renal it was > 100 µM; in the test on UACC-62 melanoma, 44.9 µM; in the test on SR leukemia, 91.7 µM; in the test with SK-MEL-2 melanoma, 88.7 µM; with HCT-116 colon, > 100 µM. The TGI in the test with NCI-H460 lung and in the test with COLO 205 colon was > 100 µM in each case.

Take `COc1ccc(C[C@H](N)C(=O)N2C[C@@H](CO)C[C@@H](n3ccc(=O)[nH]c3=O)C2)cc1`: the TGI in the test on RPMI-8226 leukemia, in the test with SN12C renal, in the test with UACC-62 melanoma, with SR leukemia, in the test with SK-MEL-2 melanoma and with HCT-116 colon was > 100 µM in each case. Besides, the TGI in the test with NCI-H460 lung and in the test on COLO 205 colon was > 100 µM throughout.

As to `O=c1oc2ccccc2c(O)c1C(C/C(CCN1CCCC1)=N\Nc1ccccc1)c1ccccc1` (stereo not given), the TGI with RPMI-8226 leukemia is 77.7 µM; in the test with SN12C renal, > 100 µM; with UACC-62 melanoma, > 100 µM; in the test with SR leukemia, 75.1 µM; with SK-MEL-2 melanoma, > 100 µM; in the test with HCT-116 colon, > 100 µM. In addition, in the test on NCI-H460 lung, the TGI is > 100 µM.

For the compound `COc1ccc(N2C(=O)C3c4[nH]c5ccccc5c4C4CCCCC4C3C2=O)cc1` (stereo not given), the TGI with RPMI-8226 leukemia is > 100 µM; with SN12C renal, > 100 µM; in the test on UACC-62 melanoma, 33.3 µM; in the test on SR leukemia, 25.2 µM; in the test on SK-MEL-2 melanoma, 53.5 µM; with HCT-116 colon, 22 µM. Further, the TGI in the test with NCI-H460 lung and with COLO 205 colon was > 100 µM in each case.

As for `COC1OC2=CCC3C(=O)NC(=O)C3C2[C@H](OCc2ccccc2)C1OCc1ccccc1` (stereo not given in full), the TGI in the test on SN12C renal was 3.14 µM; with UACC-62 melanoma, 6 µM; in the test with SK-MEL-2 melanoma, 16.4 µM; in the test on HCT-116 colon it was 3.21 µM; with NCI-H460 lung, 32.6 µM.

Turning to `CC1(C)N=C(c2ccccn2)C(c2ccccn2)=NC1(C)C`, the TGI in the test with RPMI-8226 leukemia, with SN12C renal, in the test on UACC-62 melanoma, in the test on SR leukemia, in the test with SK-MEL-2 melanoma and in the test with HCT-116 colon was > 100 µM in each case. The TGI in the test with NCI-H460 lung and with COLO 205 colon was > 100 µM in each case.

Take `COc1ccc2c(c1)OC[C@@H]1c3cc(O)c(OCc4ccccc4)cc3O[C@H]21`: the TGI was 49 µM with RPMI-8226 leukemia; > 100 µM in the test on UACC-62 melanoma; 60.8 µM with SK-MEL-2 melanoma; > 100 µM in the test on HCT-116 colon; 35.7 µM with NCI-H460 lung; 74.1 µM with COLO 205 colon.
